Calls of active or inactive are those of the source.
Assays:
Protein RecA = biological target: T1, Protein RecA (Mycobacterium tuberculosis, UniProt P9WHJ3); assay: Fluorescence Cell-Free Homogeneous Dose Retest to Identify Inhibitors of RecA-Intein Splicing Activity. [Related pubchem assays (depositor defined):AID2097, AID2223, AID489010, AID492950]; format: functional
T1 sequence (P9WHJ3 whole entry): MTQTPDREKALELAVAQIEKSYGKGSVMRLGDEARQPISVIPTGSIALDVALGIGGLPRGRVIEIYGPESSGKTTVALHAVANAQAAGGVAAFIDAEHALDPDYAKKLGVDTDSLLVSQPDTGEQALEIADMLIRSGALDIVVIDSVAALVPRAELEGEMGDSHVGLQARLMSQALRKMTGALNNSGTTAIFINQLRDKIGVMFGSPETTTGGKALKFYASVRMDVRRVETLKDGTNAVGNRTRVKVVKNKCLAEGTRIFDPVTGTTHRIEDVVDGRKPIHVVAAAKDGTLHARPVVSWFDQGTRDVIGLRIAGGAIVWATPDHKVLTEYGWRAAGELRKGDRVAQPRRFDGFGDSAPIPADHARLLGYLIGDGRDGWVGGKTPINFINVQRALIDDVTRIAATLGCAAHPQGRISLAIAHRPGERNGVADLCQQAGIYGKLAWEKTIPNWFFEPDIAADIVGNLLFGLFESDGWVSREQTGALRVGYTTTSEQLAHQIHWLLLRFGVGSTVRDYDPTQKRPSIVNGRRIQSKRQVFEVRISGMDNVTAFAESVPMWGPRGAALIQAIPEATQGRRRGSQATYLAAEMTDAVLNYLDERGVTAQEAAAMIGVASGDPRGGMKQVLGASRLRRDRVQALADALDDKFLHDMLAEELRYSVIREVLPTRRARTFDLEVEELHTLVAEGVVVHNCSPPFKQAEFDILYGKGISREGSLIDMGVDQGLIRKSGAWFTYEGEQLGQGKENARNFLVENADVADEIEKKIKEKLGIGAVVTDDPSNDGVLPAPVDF

Caspase-3 = biological target: T2, Caspase-3 (Homo sapiens, UniProt P42574); assay: activators of human procaspase-3 D3A mutant – biochemical, absorbance, PC-3 D3A mutant, counter-screen for dual procaspase-3/7 activator project, dose response (AID 504328)
T2 sequence (P42574 whole entry): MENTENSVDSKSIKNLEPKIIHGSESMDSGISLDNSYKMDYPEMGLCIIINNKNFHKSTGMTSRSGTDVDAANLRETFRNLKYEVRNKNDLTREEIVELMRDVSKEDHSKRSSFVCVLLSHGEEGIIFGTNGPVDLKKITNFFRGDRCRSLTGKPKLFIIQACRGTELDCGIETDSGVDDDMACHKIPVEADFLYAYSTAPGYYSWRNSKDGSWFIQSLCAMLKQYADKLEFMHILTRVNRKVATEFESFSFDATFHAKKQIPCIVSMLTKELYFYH

Caspase-7 = Caspase-7 (Homo sapiens, UniProt P55210); assay: potency of procaspase-7 enzyme activation – biochemical, absorbance, human, dual procaspase-3/-7 activator project, dose response (AID 504330)
[1] = biological target: T3, Replicative DNA helicase DnaB (Mycobacterium tuberculosis, UniProt P9WMR3); assay: DnaB intein splicing inhibitors, dose response, biochemical, cell-free fluorescence (AID 449749); format: functional
T3 sequence (P9WMR3 whole entry): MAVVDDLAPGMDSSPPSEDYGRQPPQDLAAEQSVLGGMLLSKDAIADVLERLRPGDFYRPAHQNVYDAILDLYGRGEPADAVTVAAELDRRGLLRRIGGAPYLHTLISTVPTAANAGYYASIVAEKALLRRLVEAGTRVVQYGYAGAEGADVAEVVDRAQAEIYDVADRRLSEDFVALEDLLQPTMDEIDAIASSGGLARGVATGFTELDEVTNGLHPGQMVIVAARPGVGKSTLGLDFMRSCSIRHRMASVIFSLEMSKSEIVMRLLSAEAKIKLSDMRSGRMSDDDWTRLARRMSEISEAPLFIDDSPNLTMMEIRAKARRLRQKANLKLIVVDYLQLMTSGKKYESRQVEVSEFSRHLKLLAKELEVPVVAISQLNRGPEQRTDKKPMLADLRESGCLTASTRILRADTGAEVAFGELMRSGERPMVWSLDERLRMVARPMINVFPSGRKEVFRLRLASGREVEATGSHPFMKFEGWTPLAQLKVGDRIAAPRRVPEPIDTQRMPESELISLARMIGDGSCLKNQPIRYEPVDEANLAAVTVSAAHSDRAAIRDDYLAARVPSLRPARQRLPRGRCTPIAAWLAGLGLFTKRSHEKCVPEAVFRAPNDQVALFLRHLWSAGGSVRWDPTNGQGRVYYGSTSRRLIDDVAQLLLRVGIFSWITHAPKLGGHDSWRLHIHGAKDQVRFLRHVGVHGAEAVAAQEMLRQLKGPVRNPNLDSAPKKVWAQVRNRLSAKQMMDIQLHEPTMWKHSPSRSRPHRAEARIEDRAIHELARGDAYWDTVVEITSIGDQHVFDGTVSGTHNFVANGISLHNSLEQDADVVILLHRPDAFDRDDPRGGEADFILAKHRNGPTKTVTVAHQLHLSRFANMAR

[2] = biological target: T4, RNA-binding protein pos-1 (Caenorhabditis elegans, UniProt G5EF15); assay: disruptors of C. elegans POS-1 RNA interaction – biochemical, fluorescence polarization, dose response (AID 1964);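 also: purified POS-1 fused to maltose binding protein made in E. coli; potency of compounds blocking POS-1 binding to fluorescent RNA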
T4 sequence (G5EF15 whole entry): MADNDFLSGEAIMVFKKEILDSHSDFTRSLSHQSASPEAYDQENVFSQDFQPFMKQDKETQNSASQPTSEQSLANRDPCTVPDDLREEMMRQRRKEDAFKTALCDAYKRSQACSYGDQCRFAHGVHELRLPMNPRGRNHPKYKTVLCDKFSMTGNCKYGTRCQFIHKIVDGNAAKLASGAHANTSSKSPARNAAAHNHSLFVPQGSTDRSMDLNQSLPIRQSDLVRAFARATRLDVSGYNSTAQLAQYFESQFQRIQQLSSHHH

[3] = biological target: Bifunctional protein GlmU (Mycobacterium tuberculosis, UniProt P9WMN3); assay: Inhibitors of Mycobacterial Glucosamine-1-phosphate acetyl transferase (GlmU). Secondary screen.; design: species or system Mycobacterium tuberculosis H37Rv
[4] = biological target: T5, Dual specificity protein phosphatase 6 (Rattus norvegicus, UniProt Q64346); assay: inhibition of rat DUSP6 enzyme activity – biochemical, in vitro, primary screen (AID 425)
T5 sequence (Q64346 whole entry): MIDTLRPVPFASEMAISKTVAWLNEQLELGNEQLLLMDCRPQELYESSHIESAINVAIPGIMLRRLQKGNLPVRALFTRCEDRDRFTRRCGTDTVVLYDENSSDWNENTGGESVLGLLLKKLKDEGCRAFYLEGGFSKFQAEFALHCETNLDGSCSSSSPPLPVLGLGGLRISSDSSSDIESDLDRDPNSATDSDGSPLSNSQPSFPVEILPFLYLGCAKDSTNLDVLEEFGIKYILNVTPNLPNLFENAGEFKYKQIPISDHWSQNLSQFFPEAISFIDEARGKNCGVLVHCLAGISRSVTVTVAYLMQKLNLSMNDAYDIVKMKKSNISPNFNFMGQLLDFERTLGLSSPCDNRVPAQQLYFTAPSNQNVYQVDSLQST

[5] = biological target: T6, Heat shock 70 kDa protein 1A (Homo sapiens, UniProt P0DMV8); assay: small-molecule inhibition of Hsp70 – biochemical, TR-FRET (AID 786)
cells [6] = format: functional, cell-based
Estrogen receptor beta [7] = biological target: T7, Estrogen receptor beta (Homo sapiens, UniProt Q92731);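 also: recombinant ER-beta bound to coactivator SRC1 peptide in presence of estradiol agonist; inhibitors block coactivator peptide binding and lower the FRET signal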
Bcl-2-like protein 10 = Bcl-2-like protein 10 (Homo sapiens, UniProt Q9HD36); assay: Bcl-B/TR3 peptide binding disruption – biochemical, fluorescence polarization, FITC-TR3 peptide, selectivity assay for Bfl-1 inhibitor project, primary screen (AID 748);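 also: fluorescence polarization from a fluorescein-labelled TR3 peptide binding purified Bcl-B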
Estrogen receptor beta [8] = biological target: T7, Estrogen receptor beta; assay: blockers of SRC-3 recruitment to ERβ – biochemical, ELISA, streptavidin-HRP readout, orthogonal assay, confirmation (AID 1060)
[9] = biological target: Mothers against decapentaplegic homolog 3 (Homo sapiens, UniProt P84022); assay: inhibitors of SMAD-driven TGF-beta signaling – dose response (AID 715); format: functional
cells [10] = format: functional, cell-based; remark: listed apart in the source
[11] = biological target: T6, Heat shock 70 kDa protein 1A; assay: small molecules displacing fluorescent ligand from Hsp70 – biochemical, fluorescence polarization, primary screen (AID 583)
HeLa = assay: viability loss in HeLa cells – cell-based, 24 h, cherry-picked samples, cytotoxicity control, dose response (AID 504726); format: functional; details: Homo sapiens;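 also: potency for cytotoxicity as loss of luminescence signal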
[12] = biological target: Protein-tyrosine kinase 2-beta (Homo sapiens, UniProt Q14289);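 also: potency of inhibitors of PYK2 kinase phosphorylation of poly-GT substrate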
[13] = biological target: DNA (cytosine-5)-methyltransferase 1 (Homo sapiens, UniProt P26358); assay: inhibition of DNA methylation by DNMT1 – biochemical, fluorescent molecular beacon, confirmation (AID 602386); format: functional
[14] = biological target: T8, Trace amine-associated receptor 1 (Homo sapiens, UniProt Q96RJ0); assay: Counterscreen for agonists of the human trace amine associated receptor 1 (hTAAR1): Fluorescence-based cell-based high throughput dose response assay to identify hTAAR1 agonist that also desensitize TAAR1 receptor response.; format: functional
T8 sequence (Q96RJ0 whole entry): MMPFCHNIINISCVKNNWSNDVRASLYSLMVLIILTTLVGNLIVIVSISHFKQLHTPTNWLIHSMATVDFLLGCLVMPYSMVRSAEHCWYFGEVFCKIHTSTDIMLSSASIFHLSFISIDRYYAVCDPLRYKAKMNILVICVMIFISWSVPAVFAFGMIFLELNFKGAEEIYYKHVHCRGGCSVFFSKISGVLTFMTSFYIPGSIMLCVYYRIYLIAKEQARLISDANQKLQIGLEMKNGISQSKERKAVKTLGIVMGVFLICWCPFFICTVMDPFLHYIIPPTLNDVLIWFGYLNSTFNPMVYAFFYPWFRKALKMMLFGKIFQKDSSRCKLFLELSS

[15] = biological target: T8, Trace amine-associated receptor 1; assay: Fluorescence-based cell-based high throughput dose response assay to identify agonists of the human trace amine associated receptor 1 (TAAR1).; format: functional
Cytochrome P450 2C9 = Cytochrome P450 2C9 (Homo sapiens, UniProt P11712)
Ephrin type-A receptor 4 = Ephrin type-A receptor 4 (Mus musculus, UniProt Q03137); assay: EphA4 ligand-binding antagonists – biochemical, colorimetric, mouse EphA4, primary screen (AID 689); format: functional
ORF 73 = ORF 73 (Human herpesvirus 8, UniProt O40947); assay: KSHV LANA DNA-binding disruption – biochemical, fluorescence polarization, cherry-picked samples, dose response (AID 504725); design: species or system Human gammaherpesvirus 8;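 also: fluorescence polarization of a labeled DNA duplex reporting LANA DNA binding; potency is for inhibitors that block LANA binding to the DNA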
[16] = biological target: T9, Zinc finger protein mex-5 (Caenorhabditis elegans, UniProt Q9XUB2); assay: potency of MEX-5 RNA-binding blockers – biochemical, C. elegans, fluorescence polarization, dose response (AID 1960)
T9 sequence (Q9XUB2 whole entry): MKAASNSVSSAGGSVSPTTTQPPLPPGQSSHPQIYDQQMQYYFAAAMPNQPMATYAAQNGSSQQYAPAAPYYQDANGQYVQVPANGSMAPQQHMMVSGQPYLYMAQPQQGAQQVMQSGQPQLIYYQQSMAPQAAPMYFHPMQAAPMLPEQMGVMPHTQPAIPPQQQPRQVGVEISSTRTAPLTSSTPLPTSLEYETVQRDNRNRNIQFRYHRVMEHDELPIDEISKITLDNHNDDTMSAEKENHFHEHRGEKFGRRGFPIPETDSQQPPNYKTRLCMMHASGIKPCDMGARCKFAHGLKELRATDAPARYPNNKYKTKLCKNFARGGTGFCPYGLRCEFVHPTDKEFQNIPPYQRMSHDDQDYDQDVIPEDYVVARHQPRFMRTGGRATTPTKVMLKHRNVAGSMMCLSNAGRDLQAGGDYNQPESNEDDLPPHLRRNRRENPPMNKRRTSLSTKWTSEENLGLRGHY

T6 sequence (P0DMV8 whole entry): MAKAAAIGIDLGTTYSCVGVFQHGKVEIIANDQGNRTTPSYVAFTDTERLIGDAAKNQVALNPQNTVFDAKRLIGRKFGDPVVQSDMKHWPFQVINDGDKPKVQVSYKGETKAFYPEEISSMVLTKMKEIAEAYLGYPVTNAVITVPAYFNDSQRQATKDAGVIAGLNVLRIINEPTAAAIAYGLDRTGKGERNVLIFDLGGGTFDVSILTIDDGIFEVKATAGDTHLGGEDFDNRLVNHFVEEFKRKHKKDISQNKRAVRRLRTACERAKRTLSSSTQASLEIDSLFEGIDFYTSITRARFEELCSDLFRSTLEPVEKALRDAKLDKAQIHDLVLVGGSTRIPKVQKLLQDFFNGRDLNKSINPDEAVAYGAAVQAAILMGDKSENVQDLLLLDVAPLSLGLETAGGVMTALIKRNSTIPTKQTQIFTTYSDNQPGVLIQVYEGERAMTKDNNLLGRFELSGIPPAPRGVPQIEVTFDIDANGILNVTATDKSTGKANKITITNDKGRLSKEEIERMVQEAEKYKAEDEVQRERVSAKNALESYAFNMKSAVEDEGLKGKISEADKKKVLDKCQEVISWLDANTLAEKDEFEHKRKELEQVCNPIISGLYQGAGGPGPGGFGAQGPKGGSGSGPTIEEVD
T7 sequence (Q92731 whole entry): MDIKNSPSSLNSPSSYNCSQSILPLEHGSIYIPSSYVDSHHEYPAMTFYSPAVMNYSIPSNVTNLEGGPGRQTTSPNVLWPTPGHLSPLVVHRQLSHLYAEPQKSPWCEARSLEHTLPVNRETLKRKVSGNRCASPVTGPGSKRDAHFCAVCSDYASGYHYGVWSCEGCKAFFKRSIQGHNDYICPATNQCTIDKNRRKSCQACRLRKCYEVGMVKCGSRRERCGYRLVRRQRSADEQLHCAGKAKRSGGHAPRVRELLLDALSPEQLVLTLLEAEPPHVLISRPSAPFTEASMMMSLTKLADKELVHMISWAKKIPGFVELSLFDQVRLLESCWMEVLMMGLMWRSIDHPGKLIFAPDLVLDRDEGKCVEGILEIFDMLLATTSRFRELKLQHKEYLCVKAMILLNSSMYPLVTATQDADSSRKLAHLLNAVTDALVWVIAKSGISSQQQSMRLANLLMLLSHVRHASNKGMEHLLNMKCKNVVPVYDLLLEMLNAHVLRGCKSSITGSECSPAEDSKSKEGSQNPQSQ
Chain of Protein-tyrosine kinase 2-beta (Q14289 whole entry): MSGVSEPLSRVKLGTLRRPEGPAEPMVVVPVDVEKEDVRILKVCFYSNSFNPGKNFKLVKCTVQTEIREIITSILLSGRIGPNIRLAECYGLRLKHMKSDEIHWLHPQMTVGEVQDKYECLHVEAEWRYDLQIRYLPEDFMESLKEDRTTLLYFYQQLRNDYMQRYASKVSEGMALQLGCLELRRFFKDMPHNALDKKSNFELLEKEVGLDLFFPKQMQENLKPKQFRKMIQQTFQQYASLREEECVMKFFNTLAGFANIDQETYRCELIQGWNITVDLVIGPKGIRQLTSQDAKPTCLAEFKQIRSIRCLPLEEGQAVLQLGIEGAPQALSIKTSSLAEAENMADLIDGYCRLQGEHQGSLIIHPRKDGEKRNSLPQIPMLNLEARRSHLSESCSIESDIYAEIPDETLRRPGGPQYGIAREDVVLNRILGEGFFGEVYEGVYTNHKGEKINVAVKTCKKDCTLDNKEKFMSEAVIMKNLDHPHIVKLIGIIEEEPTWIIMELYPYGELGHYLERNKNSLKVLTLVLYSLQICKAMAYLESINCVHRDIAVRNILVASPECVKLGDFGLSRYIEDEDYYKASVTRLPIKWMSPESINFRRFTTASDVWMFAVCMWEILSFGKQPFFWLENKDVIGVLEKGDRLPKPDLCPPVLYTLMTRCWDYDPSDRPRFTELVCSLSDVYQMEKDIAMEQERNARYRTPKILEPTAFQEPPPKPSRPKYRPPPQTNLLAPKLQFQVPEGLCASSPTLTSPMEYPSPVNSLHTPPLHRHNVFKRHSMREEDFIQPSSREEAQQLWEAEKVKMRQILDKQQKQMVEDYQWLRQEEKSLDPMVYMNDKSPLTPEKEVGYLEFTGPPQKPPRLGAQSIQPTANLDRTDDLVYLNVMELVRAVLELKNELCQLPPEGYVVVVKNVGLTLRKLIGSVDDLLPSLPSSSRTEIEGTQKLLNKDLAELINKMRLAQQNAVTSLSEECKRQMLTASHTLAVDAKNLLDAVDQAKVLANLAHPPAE
Chain of Bcl-2-like protein 10 (Q9HD36 whole entry): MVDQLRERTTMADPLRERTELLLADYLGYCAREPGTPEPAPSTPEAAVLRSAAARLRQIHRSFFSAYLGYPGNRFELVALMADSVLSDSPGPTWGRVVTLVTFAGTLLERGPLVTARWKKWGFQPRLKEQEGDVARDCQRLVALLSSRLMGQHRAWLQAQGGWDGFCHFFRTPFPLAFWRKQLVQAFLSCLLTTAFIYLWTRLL
Chain of DNA (cytosine-5)-methyltransferase 1 (P26358 whole entry): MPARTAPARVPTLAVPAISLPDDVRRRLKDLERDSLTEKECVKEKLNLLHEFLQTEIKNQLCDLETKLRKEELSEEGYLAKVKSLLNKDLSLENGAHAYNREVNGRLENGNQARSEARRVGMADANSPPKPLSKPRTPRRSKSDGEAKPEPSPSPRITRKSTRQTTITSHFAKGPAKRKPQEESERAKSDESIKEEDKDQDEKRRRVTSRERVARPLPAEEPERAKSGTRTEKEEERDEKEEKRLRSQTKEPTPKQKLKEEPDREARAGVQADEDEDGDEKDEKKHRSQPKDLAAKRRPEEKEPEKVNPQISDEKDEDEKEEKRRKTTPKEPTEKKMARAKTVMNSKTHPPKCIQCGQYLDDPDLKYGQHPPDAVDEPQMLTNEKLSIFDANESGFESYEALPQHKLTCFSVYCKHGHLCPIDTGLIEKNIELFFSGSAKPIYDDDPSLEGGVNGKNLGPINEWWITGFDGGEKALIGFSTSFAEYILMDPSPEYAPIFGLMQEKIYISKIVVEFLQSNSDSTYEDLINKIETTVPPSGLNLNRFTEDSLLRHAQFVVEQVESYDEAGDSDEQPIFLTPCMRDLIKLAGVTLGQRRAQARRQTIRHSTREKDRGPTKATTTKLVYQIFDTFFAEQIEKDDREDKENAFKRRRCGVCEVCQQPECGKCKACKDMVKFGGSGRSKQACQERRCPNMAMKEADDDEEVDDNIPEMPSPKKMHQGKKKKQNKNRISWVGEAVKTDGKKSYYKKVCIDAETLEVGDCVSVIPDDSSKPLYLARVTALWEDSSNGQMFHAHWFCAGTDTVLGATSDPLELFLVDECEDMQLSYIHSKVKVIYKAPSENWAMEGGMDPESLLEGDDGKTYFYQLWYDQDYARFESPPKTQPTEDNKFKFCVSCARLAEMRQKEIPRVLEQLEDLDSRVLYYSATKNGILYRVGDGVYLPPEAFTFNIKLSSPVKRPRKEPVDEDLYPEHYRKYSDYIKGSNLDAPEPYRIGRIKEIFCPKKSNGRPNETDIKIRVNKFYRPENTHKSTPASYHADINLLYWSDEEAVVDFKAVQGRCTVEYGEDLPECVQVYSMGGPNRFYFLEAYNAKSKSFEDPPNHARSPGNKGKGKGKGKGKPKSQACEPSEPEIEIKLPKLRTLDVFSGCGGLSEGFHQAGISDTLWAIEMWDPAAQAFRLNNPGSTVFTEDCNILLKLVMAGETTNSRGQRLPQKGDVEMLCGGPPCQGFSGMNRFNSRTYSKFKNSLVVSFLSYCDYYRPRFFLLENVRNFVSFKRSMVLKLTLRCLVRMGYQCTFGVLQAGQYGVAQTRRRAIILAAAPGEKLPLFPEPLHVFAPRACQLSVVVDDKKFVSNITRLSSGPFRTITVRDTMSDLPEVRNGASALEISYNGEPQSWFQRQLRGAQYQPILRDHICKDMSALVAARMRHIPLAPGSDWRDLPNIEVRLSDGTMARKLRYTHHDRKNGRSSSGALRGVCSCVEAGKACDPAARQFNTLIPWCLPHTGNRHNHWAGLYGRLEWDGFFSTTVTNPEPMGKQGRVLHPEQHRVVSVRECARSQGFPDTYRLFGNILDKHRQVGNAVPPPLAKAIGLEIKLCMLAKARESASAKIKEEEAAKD
Chain of ORF 73 (O40947 whole entry): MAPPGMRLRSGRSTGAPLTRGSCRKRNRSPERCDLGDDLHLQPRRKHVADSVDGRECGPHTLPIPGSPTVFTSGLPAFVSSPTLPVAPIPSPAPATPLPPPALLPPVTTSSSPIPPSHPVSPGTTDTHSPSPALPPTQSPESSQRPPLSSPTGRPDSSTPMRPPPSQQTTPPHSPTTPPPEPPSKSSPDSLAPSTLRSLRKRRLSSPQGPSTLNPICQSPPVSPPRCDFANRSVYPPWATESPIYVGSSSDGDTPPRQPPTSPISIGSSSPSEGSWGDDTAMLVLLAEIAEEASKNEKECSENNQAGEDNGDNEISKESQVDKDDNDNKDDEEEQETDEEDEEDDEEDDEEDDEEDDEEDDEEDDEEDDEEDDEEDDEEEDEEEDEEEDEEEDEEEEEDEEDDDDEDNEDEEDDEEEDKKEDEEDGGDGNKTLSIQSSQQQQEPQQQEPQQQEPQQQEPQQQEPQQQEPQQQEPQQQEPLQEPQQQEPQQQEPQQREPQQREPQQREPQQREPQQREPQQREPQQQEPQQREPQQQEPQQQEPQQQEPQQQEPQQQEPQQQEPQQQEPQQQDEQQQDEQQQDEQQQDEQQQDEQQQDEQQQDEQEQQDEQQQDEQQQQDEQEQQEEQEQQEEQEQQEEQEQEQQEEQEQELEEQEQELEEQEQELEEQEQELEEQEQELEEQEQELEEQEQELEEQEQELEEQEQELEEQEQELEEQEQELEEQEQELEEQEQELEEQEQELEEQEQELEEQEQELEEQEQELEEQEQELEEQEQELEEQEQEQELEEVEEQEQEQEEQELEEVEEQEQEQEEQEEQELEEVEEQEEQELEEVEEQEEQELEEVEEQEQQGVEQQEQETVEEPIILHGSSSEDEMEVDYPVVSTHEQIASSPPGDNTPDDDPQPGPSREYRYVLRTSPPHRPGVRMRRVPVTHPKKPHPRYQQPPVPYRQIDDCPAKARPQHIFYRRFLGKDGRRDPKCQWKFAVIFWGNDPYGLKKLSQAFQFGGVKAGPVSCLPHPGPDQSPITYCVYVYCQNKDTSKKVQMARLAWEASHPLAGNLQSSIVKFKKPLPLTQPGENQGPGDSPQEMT

Cc1n[nH]c2c1C(c1c[nH]c3ccccc13)C(C#N)=C(N)O2 (centres undefined)
inactive: EC50 (Caspase-3) 23.1 µM | EC50 (Caspase-7) 27.8 µM
active: EC50 (Protein RecA) 2.03 µM | AC50 [1] 3.79 µM

CC1(C)CCCN(C(=O)c2coc(=O)c(Br)c2)C1
> 10 µM (not active): IC50 [4]
inconclusive: AC50 (Cytochrome P450 2C9) 28.2 µM
inactive: EC50 (cells [6]) > 29.9 µM | IC50 (cells [10]) > 29.9 µM
active: IC50 [3] 21.2 µM | IC50 [5] 8.32 µM | IC50 (Estrogen receptor beta [7]) < 1.56 µM | IC50 (Bcl-2-like protein 10) 6.54 µM | IC50 [9] 14 µM | IC50 [11] 13.1 µM | AC50 (HeLa) 96.3 µM | IC50 [12] 5.23 µM | IC50 [13] 2.92 µM | IC50 [14] 2.41 µM | EC50 [15] 0.827 µM | IC50 (Ephrin type-A receptor 4) 8.98 µM | AC50 (ORF 73) 71.2 µM | EC50 [16] 68.3 µM
93.2 µM (not active): IC50 (Estrogen receptor beta [8])
> 300 µM (not active): EC50 [2]

Source: ChEMBL document CHEMBL1201862, “PubChem BioAssay data set” (2004)
